PMC12481569, “Novltex: A New Class of Antibiotics with Potent Activity against Multidrug-Resistant Bacterial Pathogens–Design, Synthesis, and Biological Evaluation” (Journal of Medicinal Chemistry, 2025)
Positions of bridges follow the written chain, without caps; N, C: chain ends. Non-standard residues stand in square brackets, D forms with d. Residues, ends and D or L forms follow the SMILES beside them. dCha = N[C@H](CC1CCCCC1)C(=O)O

Tested on: human red blood cells (RBCs)
Experiment: Hemolysis assay
Format: cell-based
Details: 1 h, 37 °C, PBS pH 7.0, absorbance 576 nm, 4 donors in duplicate
Protocol: 4 Cytotoxicity evaluation of analogue 12. Human primary dermal fibroblasts (A), liver cell line HepG2 (B), and kidney cell line HEK293T (C) cells (5 × 10^3 cells/well in 96-well plates) were treated with increasing concentrations of analogue 12 or 1 μM staurosporine (STS, used as a positive toxicity control) for 24 or 48 h, as indicated. Viability of cells was determined using an MTS-based assay. Results (% cell viability) are the mean ± SD of three independent experiments performed in triplicate. (D) Freshly collected human red blood cells (RBCs) were exposed to increasing concentrations of 12 or Triton X-100 (TX), as indicated, for 1 h. Hemolytic activity (% hemolysis) was determined by spectrophotometrically measuring the release of hemoglobin compared to that with TX (used as a positive control). […]
day, cells were treated in triplicates with increasing concentrations of Novltex analogue 12, as indicated in the corresponding figure and the figure legend (Figure 4A-C). […] Cell viability assessed after 24 h or 48 h incubation using an MTS-based CellTiter 96® AQueous One Solution Cell Proliferation Assay (Promega #G3582, Southampton UK) as per manufacturer’s instructions. Absorbance was recorded at 490 nm. Relative cell viability was determined by subtracting the blank (cell culture medium and MTS only) from individual values before normalizing against the untreated control. […]

CC(C)C[C@@H]1NC(=O)[C@H](C)NC(=O)[C@H](NC(=O)[C@H](CO)NC(=O)[C@@H](CCCCN)NC(=O)[C@@H](CC2CCCCC2)NC(=O)[C@@H](N)Cc2ccccc2)[C@H](C)OC(=O)[C@H](CC(C)C)NC1=O [analogue 12, Leu2Cha–Novltex] (H-F[dCha][dK]S[dT]ALL; ester 5-C)
hemolysis of human erythrocytes (62.5 μg/mL (125× MIC)): low hemolysis
hemolysis of human erythrocytes (concentrations up to 31.2 μg/mL): no detectable hemolysis
